Laboratory results taken from patent US8324245B2, “Quinoline derivative and quinazoline derivative inhibiting self-phosphorylation of hepatocytus proliferator receptor, and medicinal composition containing the same” (Kyowa Hakko Kirin Co., Ltd., priority 2001, dated 2012).

Assays:
[1] = target: T1, met (HGF receptor) in human gastric cancer cells MKN45 (Homo sapiens, UniProt P08581); experiment: Inhibitory activity against met-autophosphorylation using ELISA method (2), MKN45 cells, HGF-independent; type: cell-based
T1 construct: endogenous in cells; host or cells: MKN45 human gastric cancer cells
Method in brief: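 Met autophosphorylation was read by sandwich ELISA: phosphotyrosine capture (PY20), anti-HGF receptor detection, peroxidase read-out at 450 nm. Lysates came from MKN45 gastric cancer cells kept in 0.1% FCS RPMI and treated 1 h at 37 °C with test compound, with no added HGF.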

[2] = tested on: Human gastric cancer cells (MKN 45); experiment: Tumor growth inhibitory activity against various human tumor cells in nude mice: MKN 45; type: in vivo; conditions: Mus musculus, MKN-45, po, 120 h, MKN45, Oral, 5 days; read-out: TGIR
Method: (§1) Human gastric cancer cells (MKN 45) (obtained from RIKEN), human brain tumor cells (U87MG) (obtained from ATCC), human pancreatic cancer cells (KP4) (obtained from RIKEN), human pancreatic cancer cells (SUIT-2) (obtained from National Kyushu Cancer Center), and human signet-ring type gastric cancer cells (NUGC-4) (obtained from RIKEN), or human lung cancer cells (LC6) (obtained from Central Laboratories for Experimental Animals) were transplanted into nude mice. […] The test compound suspended in 0.5% methylcellulose was orally administered once or twice a day for 5 days. Only 0.5% methylcellulose was administered to the control group in the manner as in the test groups. Alternatively, the test compound dissolved in physiological saline (with a 1 N aqueous hydrochloric acid solution added thereto) was intraveneously injected once a day for 5 days, and only physiological saline (with a 1 N aqueous hydrochloric acid solution added thereto) was administered to the control group in the same manner as in the test groups. The tumor growth inhibition rate (TGIR) was calculated as follows: The tumor growth inhibition rate (TGIR)=(1−TX/CX)×100 wherein CX represents the relative tumor volume at the 5th day for the control group when the tumor volume at the day of the start of the administration was presumed to be 1; and TX represents the relative tumor volume for test compound administration groups.

[3] = tested on: human lung cancer cells (LC6); experiment: Tumor growth inhibitory activity against various human tumor cells in nude mice: LC6; type: in vivo; conditions: LC6, Oral, 30 × 2 mg/kg × number of times, 5 days
Method: as §1

T1 sequence (P08581 25-1390): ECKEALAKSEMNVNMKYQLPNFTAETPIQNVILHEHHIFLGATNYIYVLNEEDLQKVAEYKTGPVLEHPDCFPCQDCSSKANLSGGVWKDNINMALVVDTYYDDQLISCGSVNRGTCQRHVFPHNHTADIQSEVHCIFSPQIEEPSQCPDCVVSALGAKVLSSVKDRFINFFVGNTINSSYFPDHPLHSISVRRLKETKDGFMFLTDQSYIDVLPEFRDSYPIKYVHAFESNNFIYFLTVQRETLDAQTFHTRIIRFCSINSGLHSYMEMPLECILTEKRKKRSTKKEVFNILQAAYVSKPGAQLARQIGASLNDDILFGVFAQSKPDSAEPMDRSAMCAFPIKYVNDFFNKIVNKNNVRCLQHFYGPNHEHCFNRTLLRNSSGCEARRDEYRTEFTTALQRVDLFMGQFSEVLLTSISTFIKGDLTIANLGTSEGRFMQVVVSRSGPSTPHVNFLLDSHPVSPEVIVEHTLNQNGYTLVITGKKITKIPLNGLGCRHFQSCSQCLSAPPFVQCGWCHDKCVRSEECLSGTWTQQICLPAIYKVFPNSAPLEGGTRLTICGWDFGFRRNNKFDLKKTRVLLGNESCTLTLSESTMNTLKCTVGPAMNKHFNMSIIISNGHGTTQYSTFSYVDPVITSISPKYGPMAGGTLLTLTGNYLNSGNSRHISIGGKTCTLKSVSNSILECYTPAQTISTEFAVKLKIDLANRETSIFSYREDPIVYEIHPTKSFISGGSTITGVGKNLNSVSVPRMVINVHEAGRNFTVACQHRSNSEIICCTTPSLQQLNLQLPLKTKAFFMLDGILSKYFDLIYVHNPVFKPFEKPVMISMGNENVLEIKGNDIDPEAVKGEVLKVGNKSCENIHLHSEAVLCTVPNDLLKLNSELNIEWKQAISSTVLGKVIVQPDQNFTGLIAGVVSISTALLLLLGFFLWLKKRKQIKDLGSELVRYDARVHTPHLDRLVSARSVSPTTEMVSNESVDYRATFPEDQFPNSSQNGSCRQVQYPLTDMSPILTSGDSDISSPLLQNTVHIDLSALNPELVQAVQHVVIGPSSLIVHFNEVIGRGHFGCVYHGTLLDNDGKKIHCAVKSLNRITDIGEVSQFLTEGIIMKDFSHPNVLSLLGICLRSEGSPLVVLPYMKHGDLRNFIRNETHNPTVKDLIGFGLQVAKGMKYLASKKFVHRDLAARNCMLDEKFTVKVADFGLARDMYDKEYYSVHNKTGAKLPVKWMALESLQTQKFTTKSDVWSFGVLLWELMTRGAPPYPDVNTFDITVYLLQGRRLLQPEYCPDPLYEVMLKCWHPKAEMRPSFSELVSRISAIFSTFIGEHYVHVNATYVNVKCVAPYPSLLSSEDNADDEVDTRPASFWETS

`COc1cc2c(Oc3ccc(NC(=S)NC(=O)Cc4ccccc4Cl)cc3F)ccnc2cc1OCCCN1CCOCC1` [Example 285, 1-[2-(2-Chloro-phenyl)-acetyl]-3-{3-fluoro-4-[6-methoxy-7-(3-morpholin-4-yl-propoxy)-quinolin-4-yloxy]-phenyl}-thiourea] gave an IC50 [1] of 0.0753 µM, an inhibition in vivo at 30 mg/kg [2] of 66% and a TGIR [3] of 48%.

`COc1cc2c(Oc3ccc(NC(=S)NC(=O)Cc4ccc(F)cc4)cc3F)ccnc2cc1OCCN1CCOCC1` [Example 277, 1-{3-Fluoro-4-[6-methoxy-7-(2-morpholin-4-yl-ethoxy)-quinolin-4-yloxy]-phenyl}-3-[2-(4-fluorophenyl)-acetyl]-thiourea] was tested, and the IC50 [1] was 0.0204 µM and the inhibition in vivo at 30 mg/kg [2] was 17%.

With `COc1cc2c(Oc3ccc(NC(=S)NC(=O)Cc4cccc(F)c4)cc3F)ccnc2cc1OCC(O)CN1CCOCC1` (stereo not drawn) [Example 323, 1-{3-Fluoro-4-[7-(2-hydroxy-3-morpholin-4-yl-propoxy)-6-methoxy-quinolin-4-yloxy]-phenyl}-3-[2-(3-fluoro-phenyl)-acetyl]-thiourea] the IC50 [1] was < 0.01 µM and the inhibition in vivo at 30 mg/kg [2] was 34%.

For `COc1cc2c(Oc3ccc(NC(=S)NC(=O)Cc4cccc(F)c4)cc3Cl)ccnc2cc1OCCCN1CCOCC1` [Example 299, 1-{3-Chloro-4-[6-methoxy-7-(3-morpholin-yl-propoxy)-quinolin-4-yloxy]-phenyl}-3-[2-(3-fluoro-phenyl)-acetyl]-thiourea], the IC50 [1] was 0.0435 µM and the inhibition in vivo at 25 mg/kg [2] was 14%.

In the case of `COc1cc2c(Oc3ccc(NC(=S)NC(=O)Cc4ccc(F)cc4)cc3F)ccnc2cc1OCCN1CCC(CO)CC1` [Example 282, 1-(3-Fluoro-4-{7-[2-(4-hydroxymethyl-piperidin-1-yl)ethoxy]-6-methoxy-quinolin-4-yloxy}-phenyl)-3-[2-(4-fluoro-phenyl)-acetyl]-thiourea], the IC50 [1] is reported as 0.0166 µM and the inhibition in vivo at 30 mg/kg [2] is reported as 13%.

Compound `COc1cc2c(Oc3ccc(NC(=S)NC(=O)Cc4ccccc4)cc3F)ccnc2cc1OCC(O)CN1CCCCC1` (stereo not drawn) [Example 331] has an IC50 [1] of 0.022 µM and an inhibition in vivo at 30 mg/kg [2] of 40%.

With `COc1cc2c(Oc3ccc(NC(=S)NC(=O)Cc4ccccc4C)cc3F)ccnc2cc1OCC(O)CN1CCOCC1` (stereo not drawn) [Example 333] the IC50 [1] was 0.0211 µM and the inhibition in vivo at 30 mg/kg [2] was 75%.

In the case of `COc1cc2c(Oc3ccc(NC(=S)NC(=O)Cc4ccccc4F)cc3F)ccnc2cc1OCC(O)CN1CCOCC1` (stereo not drawn) [Example 315], the IC50 [1] is reported as 0.021 µM and the inhibition in vivo at 30 mg/kg [2] is reported as 36%.

In the case of `COc1cc2c(Oc3ccc(NC(=S)NC(=O)Cc4ccc(Cl)cc4)cc3F)ccnc2cc1OCC(O)CN1CCOCC1` (stereo not drawn) [Example 326, 1-[2-(4-Chloro-phenyl)-acetyl]-3-{3-fluoro-4-[7-(2-hydroxy-3-morpholin-4-yl-propoxy)-6-methoxy-quinolin-4-yloxy]-phenyl}-thiourea], the IC50 [1] is reported as 0.0131 µM and the inhibition in vivo at 30 mg/kg [2] is reported as 17%.

`COc1cc2c(Oc3ccc(NC(=S)NC(=O)Cc4ccccc4Cl)cc3F)ccnc2cc1OCC(O)CN1CCOCC1` (stereo not drawn) [Example 314, 1-[2-(2-Chloro-phenyl)-acetyl]-3-{3-fluoro-4-[7-(2-hydroxy-3-morpholin-4-yl-propoxy)-6-methoxy-quinolin-4-yloxy]-phenyl}-thiourea] showed an IC50 [1] of 0.0232 µM and an inhibition in vivo at 30 mg/kg [2] of 38%.

`COc1cc2c(Oc3ccc(NC(=S)NC(=O)Cc4cccc(Cl)c4)cc3F)ccnc2cc1OCC(O)CN1CCOCC1` (stereo not drawn) [Example 320, 1-[2-(3-Chloro-phenyl)-acetyl]-3-{3-fluoro-4-[7-(2-hydroxy-3-morpholin-4-yl-propoxy)-6-methoxy-quinolin-4-yloxy]-phenyl}-thiourea] showed an IC50 [1] of 0.014 µM and an inhibition in vivo at 30 mg/kg [2] of 20%.

`COc1cc2c(Oc3ccc(NC(=S)NC(=O)Cc4ccccc4)cc3F)ccnc2cc1OCC(O)CN1CCOCC1` (stereo not drawn) [Example 312, 1-{3-Fluoro-4-[7-(2-hydroxy-3-morpholin-4-yl-propoxy)-6-methoxy-quinolin-4-yloxy]-phenyl}-3-phenylacetyl-thiourea] showed an IC50 [1] of 0.0191 µM and an inhibition in vivo at 30 mg/kg [2] of 75%.

`COc1cc2c(Oc3ccc(NC(=S)NC(=O)Cc4ccccc4F)cc3F)ccnc2cc1OCCCN1CCOCC1` [Example 288, 1-{3-Fluoro-4-[6-methoxy-7-(3-morpholin-4-yl-propoxy)-quinolin-4-yloxy]-phenyl}-3-[2-(2-fluoro-phenyl)-acetyl]-thiourea] gave an IC50 [1] of 0.0226 µM and an inhibition in vivo at 30 mg/kg [2] of 64%.

`COc1cc2nccc(Oc3ccc(NC(=S)NC(=O)Cc4cccc(C(F)(F)F)c4)c(F)c3)c2cc1OC` [Example 202, 1-[4-(6,7-dimethoxyquinolin-4-yloxy)-2-fluorophenyl]-3-[2-(3-trifluoromethylphenyl)acetyl]-thiourea] gave an IC50 [1] of 0.642 µM.

`COc1cc2c(Oc3ccc(NC(=O)NC(=O)Cc4ccccc4)cc3F)ccnc2cc1OCCCn1ccnc1` [Example 305, 1-{3-Fluoro-4-[7-(3-imidazol-1-yl-propoxy)-6-methoxy-quinolin-4-yloxy]-phenyl}-3-phenylacetyl-urea] showed an IC50 [1] of 0.0214 µM.

Work on `COc1cc2nccc(Oc3ccc(NC(=S)NC(=O)Cc4c(F)ccc(F)c4F)cc3)c2cc1OC` [Example 204, 1-[4-(6,7-dimethoxyquinolin-4-yloxy)phenyl]-3-[2-(2,3,6-trifluorophenyl)acetyl]thiourea] yielded an IC50 [1] of 0.321 µM.

`COc1cc2nccc(Oc3ccc(NC(=O)NC(=O)CN4CCc5ccccc54)cc3Cl)c2cc1OC` [Example 8, 1-[3-chloro-4-(6,7-dimethoxyquinolin-4-yloxy)-phenyl]-3-[2-(2,3-dihydro-1H-1-indol-1-yl)acetyl]-urea] was tested, and the IC50 [1] was 0.298 µM.

Work on `COc1cc2c(Oc3ccc(NC(=S)NC(=O)Cc4ccccc4F)cc3F)ccnc2cc1OCC(O)CN1CCCCC1` (stereo not drawn) [Example 318, 1-(3-Fluoro-4-[7-(2-hydroxy-3-piperidin-1-yl-propoxy)-6-methoxy-quinolin-4-yloxy]-phenyl)-3-[2-(2-fluoro-phenyl)-acetyl]-thiourea] yielded an IC50 [1] of 0.0283 µM.

`COc1cc2c(Oc3ccc(NC(=O)NC(=O)Cc4ccccc4)cc3F)ccnc2cc1OCCCN1CCCC1` [Example 292, 1-{3-Fluoro-4-[6-methoxy-7-(3-pyrrolidin-1-yl-propoxy)-quinolin-4-yloxy]-phenyl}-3-phenylacetyl-urea] gave an IC50 [1] of 0.0203 µM.

For `COc1cc2nccc(Oc3ccc(NC(=O)NC(=O)Nc4ccccc4C(F)(F)F)cc3)c2cc1OC` [Example 240, N-[2-(trifluoromethyl)phenyl]-({[4-(6,7-dimethoxyquinolin-4-yloxy)anilino]carbonyl}amino)methan-amide], the IC50 [1] was 2.74 µM.

With `COC(=O)c1cccc(NC(=O)CC(=O)Nc2ccc(Oc3ccnc4cc(OC)c(OC)cc34)cc2)c1` [Example 213, methyl 3-{2-[4-(6,7-dimethoxyquinolin-4-yloxy)phenylcarbamoyl]acetylamino}benzoate] the IC50 [1] was 2.43 µM.

Compound `COc1cc2nccc(Oc3ccc(NC(=S)NC(=O)Cc4ccc(C)cc4)cc3)c2cc1OC` [Example 168, 1-[4-(6,7-dimethoxyquinolin-4-yloxy)phenyl]-3-(2-p-tolylacetyl)thiourea] has an IC50 [1] of 0.306 µM.

`COc1cc2nccc(Oc3ccc(NC(=O)NC(=O)Nc4ccnn4C)cc3)c2cc1OC` [Example 237, N-(1-methyl-1H-5-pyrazolyl)-({[4-(6,7-dimethoxyquinolin-4-yloxy)anilino]carbonyl}amino)-methanamide] showed an IC50 [1] of 1.47 µM.

`COc1cc2nccc(Oc3ccc(NC(=O)NC(=O)CC4C5CCC4CC5)cc3F)c2cc1OC` (stereo not drawn) [Example 127, 1-(2-bicyclo[2.2.1]hepto-7-ylacetyl)-3-[4-(6,7-dimethoxyquinolin-4-yloxy)-3-fluorophenyl]urea] gave an IC50 [1] of 0.319 µM.

With `COc1cc2c(Oc3ccc(NC(=S)NC(=O)Cc4cccc(C)c4)cc3F)ccnc2cc1OCC(O)CN1CCOCC1` (stereo not drawn) [Example 334] the IC50 [1] was 0.0227 µM and the inhibition in vivo at 30 mg/kg [2] was 65%.

With `COc1cc2nccc(Oc3ccc(NC(=S)NC(=O)C4C[C@@H]4c4ccccc4)cc3)c2cc1OC` (stereo in doubt) [Example 150, 1-[4-(6,7-dimethoxyquinolin-4-yloxy)phenyl]-3-(2-phenylcyclopropanecarbonyl)thiourea] the IC50 [1] was 1.28 µM.

`COc1cc2c(Oc3ccc(NC(=O)NC(=O)Cc4ccccc4)c(F)c3)ccnc2cc1OCCCN1CCOCC1` [Example 287] showed an IC50 [1] of 0.0225 µM.

`COc1cc2nccc(Oc3ccc(NC(=O)NC(=O)Cc4ccsc4)c(F)c3)c2cc1OC` [Example 19, 1-[4-(6,7-dimethoxyquinolin-4-yloxy)-2-fluoro-phenyl]-3-(2-thiophen-3-ylacetyl)urea] was tested, and the IC50 [1] was 0.104 µM.

In the case of `COc1cc2c(Oc3ccc(NC(=S)NC(=O)Cc4ccccc4)cc3F)ccnc2cc1OCC(O)CN1CCCC1` (stereo not drawn) [Example 332, 1-{3-Fluoro-4-[7-(2-hydroxy-3-pyrrolidin-1-yl-propoxy)-6-methoxy-quinolin-4-yloxy]-phenyl}-3-(2-phenyl-acetyl)-thiourea], the IC50 [1] is reported as 0.0142 µM and the inhibition in vivo at 30 mg/kg [2] is reported as 14%.
